Data as given in patent US6930185B2, “Melanin-concentrating hormone antagonist” (Takeda Chemical Industries, Ltd., priority 2000, dated 2005).

Experiments:
SLC-1 = SLC-1 (UniProt Q99705); assay: Determination of antagonist activity using GTPγS binding assay; assay type: biochemical, human/rat; conditions: inhibition of MCH-stimulated [35S]-Guanosine 5′-(γ-thio) triphosphate binding, SLC-1 expressing CHO cell membrane fractions
Protocol: Determination of Antagonist Activity Using GTPYS Binding Assay of Test Compound
Membrane fraction was prepared by the following method, using the human SLC-1 expressing CHO cell clone 57 obtained in Reference Example 1-10, and the rat SLC-1 expressing CHO cell clone 44 obtained in Reference Example 1-4.
The human and rat SLC-1 expressing CHO cells (1×10^8) were scraped in buffer saline phosphate (pH 7.4) to which 5 mM EDTA (ethylenediaminetetraacetic acid) had been added, and centrifuged. 10 ml of homogenized buffer (10 mM NaHCO3, 5 mM EDTA, pH 7.5) was added to the cell pellets, and they were homogenized using a Polytron homogenizer. […]
After this reaction mixture was allowed to react for 1 hour under stirring, it was filtered under vacuum using a glass filter (GF-C), then the filter was washed 3 times with 300 μl of washing solution (50 mM Tris-HCl buffer solution pH 7.5). […] of liquid scintillator was added to the glass filter, and residual radioactivity was determined using a liquid scintillation counter.
The IC50 value of the compound was calculated from the binding inhibition rate (%), based on the definition that the binding inhibition rate (%)=(radioactivity when compound and MCH were added−radioactivity when DMSO solution was added)/(radioactivity when MCH was added−radioactivity when DMSO solution was added)×100.

Compound: CN(C)Cc1ccc2cc(NC(=O)c3ccc(-c4ccc(Cl)cc4)cc3)ccc2c1 [Example 1, 4′-Chloro-N-[6-[(N,N-dimethylamino)methyl]-2-naphthyl][1,1′-biphenyl]-4-carboxamide]
- melting point: 230 to 231 °C
- IC50 (SLC-1): 5 nM
